Measured values published in patent US11725012B2, “Imidazo[1,5-a]pyrazine derivatives as PI3K δ inhibitors” (priority 2016, dated 2023).
Like-named read-outs stand apart in the source and are kept apart here.

Assays:
Assay type in all cases: biochemical
[1] = target: recombinant PI3K (p110δ/p85α) (Homo sapiens, UniProt O00329); experiment: PI3Kδ ADP-Glo kinase assay
Method in brief: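 ADP-Glo luminescence with recombinant p110δ/p85α and lipid kinase substrate. Compound serial dilutions preincubated 0.5 hr, ATP added, reaction 1 hr at room temperature, then ATP depletion and detection steps. IC50 from a four-parameter logistic fit of residual activity.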

[2] = target: recombinant PI3K (p110α/p85α) (Homo sapiens, UniProt P42336); experiment: PI3Kα ADP-Glo kinase assay
Chain of recombinant PI3K (p110α/p85α) (P42336 whole entry): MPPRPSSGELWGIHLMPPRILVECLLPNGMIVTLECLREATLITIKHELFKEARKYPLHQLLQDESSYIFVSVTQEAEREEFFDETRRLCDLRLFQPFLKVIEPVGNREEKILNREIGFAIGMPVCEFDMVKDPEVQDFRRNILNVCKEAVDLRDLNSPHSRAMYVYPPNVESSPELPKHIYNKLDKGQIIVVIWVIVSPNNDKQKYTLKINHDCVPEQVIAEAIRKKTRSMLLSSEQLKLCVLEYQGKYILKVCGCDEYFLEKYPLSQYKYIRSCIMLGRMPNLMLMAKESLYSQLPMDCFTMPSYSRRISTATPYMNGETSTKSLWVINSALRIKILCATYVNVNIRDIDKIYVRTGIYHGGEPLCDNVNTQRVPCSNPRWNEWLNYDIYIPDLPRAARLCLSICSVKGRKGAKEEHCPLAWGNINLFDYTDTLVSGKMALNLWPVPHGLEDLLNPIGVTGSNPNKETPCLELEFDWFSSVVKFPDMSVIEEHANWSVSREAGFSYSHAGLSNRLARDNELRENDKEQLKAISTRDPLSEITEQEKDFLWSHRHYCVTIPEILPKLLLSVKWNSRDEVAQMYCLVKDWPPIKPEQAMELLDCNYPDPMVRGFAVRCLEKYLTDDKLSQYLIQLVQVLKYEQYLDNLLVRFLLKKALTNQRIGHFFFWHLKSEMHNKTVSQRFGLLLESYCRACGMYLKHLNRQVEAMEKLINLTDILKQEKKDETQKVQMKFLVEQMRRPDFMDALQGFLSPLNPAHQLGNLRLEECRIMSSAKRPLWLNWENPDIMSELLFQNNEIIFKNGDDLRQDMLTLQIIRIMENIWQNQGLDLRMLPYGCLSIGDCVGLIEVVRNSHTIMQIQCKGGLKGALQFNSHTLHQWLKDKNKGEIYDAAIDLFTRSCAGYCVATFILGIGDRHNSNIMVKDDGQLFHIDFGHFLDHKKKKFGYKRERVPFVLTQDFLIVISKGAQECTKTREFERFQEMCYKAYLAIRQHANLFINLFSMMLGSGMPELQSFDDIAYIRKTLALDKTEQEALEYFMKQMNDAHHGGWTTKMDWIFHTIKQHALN
Chain of recombinant PI3K (p110α/p85α) (P27986 whole entry partner): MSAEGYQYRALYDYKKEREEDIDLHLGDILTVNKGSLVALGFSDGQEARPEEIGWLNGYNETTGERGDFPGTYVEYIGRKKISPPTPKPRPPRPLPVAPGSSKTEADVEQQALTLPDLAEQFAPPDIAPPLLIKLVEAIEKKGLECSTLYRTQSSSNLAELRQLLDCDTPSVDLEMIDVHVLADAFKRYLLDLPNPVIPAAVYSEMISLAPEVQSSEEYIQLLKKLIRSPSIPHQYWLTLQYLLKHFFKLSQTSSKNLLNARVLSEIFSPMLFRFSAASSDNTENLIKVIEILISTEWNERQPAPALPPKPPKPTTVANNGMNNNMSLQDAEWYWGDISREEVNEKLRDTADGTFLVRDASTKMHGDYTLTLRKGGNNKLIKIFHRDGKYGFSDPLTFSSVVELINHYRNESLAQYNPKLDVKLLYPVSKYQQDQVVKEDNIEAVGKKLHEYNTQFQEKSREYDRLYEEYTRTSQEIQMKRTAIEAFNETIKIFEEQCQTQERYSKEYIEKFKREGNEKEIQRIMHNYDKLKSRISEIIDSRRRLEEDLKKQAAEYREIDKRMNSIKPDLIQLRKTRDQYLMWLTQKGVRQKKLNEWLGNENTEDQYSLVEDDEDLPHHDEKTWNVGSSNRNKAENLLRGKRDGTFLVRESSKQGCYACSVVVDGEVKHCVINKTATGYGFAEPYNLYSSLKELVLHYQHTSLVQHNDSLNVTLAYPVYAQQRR

PI3K (p110β/p85α) = PI3K (p110β/p85α) (Homo sapiens, UniProt P42338); experiment: PI3Kβ ADP-Glo kinase assay
Chain of PI3K (p110β/p85α) (P42338 whole entry): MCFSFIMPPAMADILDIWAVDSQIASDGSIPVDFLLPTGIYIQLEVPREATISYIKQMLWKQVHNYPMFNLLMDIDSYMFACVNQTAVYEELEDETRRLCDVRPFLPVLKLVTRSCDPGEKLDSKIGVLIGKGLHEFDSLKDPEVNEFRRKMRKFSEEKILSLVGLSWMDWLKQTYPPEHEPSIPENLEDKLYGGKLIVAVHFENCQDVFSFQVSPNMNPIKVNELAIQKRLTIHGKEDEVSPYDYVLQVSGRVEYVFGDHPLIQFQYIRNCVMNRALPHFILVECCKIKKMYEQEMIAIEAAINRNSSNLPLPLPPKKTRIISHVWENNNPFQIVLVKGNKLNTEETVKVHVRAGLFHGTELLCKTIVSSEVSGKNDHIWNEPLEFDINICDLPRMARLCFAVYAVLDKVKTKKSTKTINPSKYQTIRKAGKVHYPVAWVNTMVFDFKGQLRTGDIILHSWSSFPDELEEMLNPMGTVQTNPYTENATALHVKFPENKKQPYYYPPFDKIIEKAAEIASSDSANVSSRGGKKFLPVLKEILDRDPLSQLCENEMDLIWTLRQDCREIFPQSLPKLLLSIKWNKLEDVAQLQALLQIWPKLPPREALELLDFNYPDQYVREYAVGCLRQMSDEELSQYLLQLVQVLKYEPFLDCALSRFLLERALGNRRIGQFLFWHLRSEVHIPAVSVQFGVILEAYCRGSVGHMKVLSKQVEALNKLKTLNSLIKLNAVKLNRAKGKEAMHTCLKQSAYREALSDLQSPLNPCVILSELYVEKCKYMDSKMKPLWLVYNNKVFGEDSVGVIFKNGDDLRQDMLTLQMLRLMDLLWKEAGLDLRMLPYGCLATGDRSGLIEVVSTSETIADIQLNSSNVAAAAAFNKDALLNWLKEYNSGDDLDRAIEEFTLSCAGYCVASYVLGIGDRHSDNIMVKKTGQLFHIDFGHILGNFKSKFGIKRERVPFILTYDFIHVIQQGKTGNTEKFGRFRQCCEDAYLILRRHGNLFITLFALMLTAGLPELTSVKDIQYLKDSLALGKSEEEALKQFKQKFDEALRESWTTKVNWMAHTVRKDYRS
Chain of PI3K (p110β/p85α) (P27986 whole entry partner): as the sequence (P27986 whole entry partner) above

PI3K (p110γ) = PI3K (p110γ) (Homo sapiens, UniProt P48736); experiment: PI3Kγ ADP-Glo kinase assay
Chain of PI3K (p110γ) (P48736 whole entry): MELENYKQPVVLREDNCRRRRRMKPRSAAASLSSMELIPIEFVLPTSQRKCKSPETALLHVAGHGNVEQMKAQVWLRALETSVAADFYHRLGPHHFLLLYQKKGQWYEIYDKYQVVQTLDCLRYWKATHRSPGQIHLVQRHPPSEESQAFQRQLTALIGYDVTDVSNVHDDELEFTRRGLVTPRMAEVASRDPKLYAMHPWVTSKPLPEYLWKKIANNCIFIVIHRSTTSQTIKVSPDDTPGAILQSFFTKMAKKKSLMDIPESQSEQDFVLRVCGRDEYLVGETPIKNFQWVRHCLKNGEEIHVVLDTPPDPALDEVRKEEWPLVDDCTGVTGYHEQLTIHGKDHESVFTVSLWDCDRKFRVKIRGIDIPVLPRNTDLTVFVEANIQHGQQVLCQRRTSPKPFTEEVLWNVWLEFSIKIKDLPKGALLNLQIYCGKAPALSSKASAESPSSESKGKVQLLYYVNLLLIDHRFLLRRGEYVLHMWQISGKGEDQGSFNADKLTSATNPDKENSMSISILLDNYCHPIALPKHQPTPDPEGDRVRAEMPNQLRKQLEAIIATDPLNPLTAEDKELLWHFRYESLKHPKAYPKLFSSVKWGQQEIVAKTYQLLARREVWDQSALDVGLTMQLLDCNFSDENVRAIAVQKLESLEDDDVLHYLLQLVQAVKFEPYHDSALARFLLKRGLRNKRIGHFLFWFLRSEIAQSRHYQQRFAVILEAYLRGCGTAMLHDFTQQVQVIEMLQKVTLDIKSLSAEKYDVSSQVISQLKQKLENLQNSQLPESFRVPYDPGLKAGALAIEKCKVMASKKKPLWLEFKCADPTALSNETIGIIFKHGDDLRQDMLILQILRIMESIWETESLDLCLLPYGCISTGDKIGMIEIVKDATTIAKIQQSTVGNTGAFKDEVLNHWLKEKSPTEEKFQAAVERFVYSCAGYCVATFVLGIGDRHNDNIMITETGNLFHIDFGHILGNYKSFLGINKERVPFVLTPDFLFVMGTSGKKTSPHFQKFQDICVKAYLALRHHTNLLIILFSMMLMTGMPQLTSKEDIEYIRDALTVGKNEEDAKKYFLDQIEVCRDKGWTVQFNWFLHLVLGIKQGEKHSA

[3] = read-out: PI3Kδ Enzyme activity IC50
[4] = read-out: PI3Kα Enzyme activity IC50
[5] = read-out: PI3Kβ Enzyme activity IC50
[6] = read-out: PI3Kγ Enzyme activity IC50

Chain of recombinant PI3K (p110δ/p85α) (O00329 whole entry): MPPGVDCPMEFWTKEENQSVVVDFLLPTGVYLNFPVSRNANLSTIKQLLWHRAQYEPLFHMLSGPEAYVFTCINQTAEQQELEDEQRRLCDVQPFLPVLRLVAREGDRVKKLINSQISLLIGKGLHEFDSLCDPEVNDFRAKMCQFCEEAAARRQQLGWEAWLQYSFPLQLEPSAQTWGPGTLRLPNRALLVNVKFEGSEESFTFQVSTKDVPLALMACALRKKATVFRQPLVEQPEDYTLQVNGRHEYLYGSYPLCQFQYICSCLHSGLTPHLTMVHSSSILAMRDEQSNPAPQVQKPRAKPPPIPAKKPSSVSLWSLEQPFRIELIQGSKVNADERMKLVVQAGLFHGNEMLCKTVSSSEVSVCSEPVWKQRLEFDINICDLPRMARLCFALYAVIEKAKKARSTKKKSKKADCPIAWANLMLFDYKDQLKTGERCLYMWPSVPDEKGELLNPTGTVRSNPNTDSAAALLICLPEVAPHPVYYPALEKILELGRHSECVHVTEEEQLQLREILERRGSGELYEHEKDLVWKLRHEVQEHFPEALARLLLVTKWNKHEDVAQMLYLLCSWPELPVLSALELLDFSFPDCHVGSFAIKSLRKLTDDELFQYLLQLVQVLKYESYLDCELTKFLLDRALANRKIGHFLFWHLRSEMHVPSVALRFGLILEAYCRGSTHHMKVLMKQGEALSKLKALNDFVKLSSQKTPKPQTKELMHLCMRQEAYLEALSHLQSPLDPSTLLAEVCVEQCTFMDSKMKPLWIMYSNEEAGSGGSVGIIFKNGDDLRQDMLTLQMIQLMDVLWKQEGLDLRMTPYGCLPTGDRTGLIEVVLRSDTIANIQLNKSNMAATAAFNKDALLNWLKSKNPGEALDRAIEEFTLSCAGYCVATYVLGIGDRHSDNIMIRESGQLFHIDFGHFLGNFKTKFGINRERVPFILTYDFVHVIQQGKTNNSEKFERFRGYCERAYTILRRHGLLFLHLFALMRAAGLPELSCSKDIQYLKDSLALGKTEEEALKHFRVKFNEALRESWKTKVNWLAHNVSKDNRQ
Chain of recombinant PI3K (p110δ/p85α) (P27986 whole entry partner): as the sequence (P27986 whole entry partner) above

With Cc1nc([C@@H](C)c2cc(Cl)c(F)c(-c3ccc(C(=O)NC4(CO)CC4)nc3)c2OC(C)C)n2ccnc(N)c12 [Compound 66, (S)-5-(3-(1-(8-amino-1-methylimidazo[1,5-a]pyrazin-3-yl)ethyl)-5-chloro-6-fluoro-2-isopropoxyphenyl)-N-(1-(hydroxymethyl)cyclopropyl)picolinamide] the IC50 [1, 3] was 0.72 nM, the IC50 [2, 4] was 4100 nM and the IC50 (PI3K (p110β/p85α); [5]) was 3400 nM. For the same molecule, the IC50 (PI3K (p110γ); [6]) was 2600 nM.

CCOc1c(C(C)c2nc(Cl)c3c(N)nccn23)cc(Cl)c(C)c1N1CCOCC1 (stereo not shown) [Compound 51, 1-chloro-3-(1-(5-chloro-2-ethoxy-4-methyl-3-morpholinophenyl)ethyl)imidazo[1,5-a]pyrazin-8-amine] gave an IC50 [1, 3] of 1.6 nM, an IC50 [2, 4] of 2900 nM and an IC50 (PI3K (p110β/p85α); [5]) of 2700 nM. It also gave an IC50 (PI3K (p110γ); [6]) of 1700 nM.

With CCCOc1c(C(C)c2nc(Cl)c3c(N)nccn23)cc(Cl)c(F)c1-c1ccc(C(F)(F)F)nc1 (stereo not shown) [Compound 42, 1-chloro-3-(1-(5-chloro-4-fluoro-2-propoxy-3-(6-(trifluoromethyl)pyridin-3-yl)phenyl)ethyl)imidazo[1,5-a]pyrazin-8-amine] the IC50 [1, 3] was 7.4 nM, the IC50 [2, 4] was greater than 50000 nM and the IC50 (PI3K (p110β/p85α); [5]) was greater than 50000 nM. For the same molecule, the IC50 (PI3K (p110γ); [6]) was 1600 nM.

With CC(c1cc(Cl)c(C#N)c(=O)n1-c1ccccc1)n1cc(Br)c2c(N)ncnc21 (stereo not shown) [Compound 54, 6-(1-(4-amino-5-bromo-7H-pyrrolo[2,3-d]pyrimidin-7-yl)ethyl)-4-chloro-2-oxo-1-phenyl-1,2-dihydropyridine-3-carbonitrile] the IC50 [1, 3] was 15 nM, the IC50 [2, 4] was 29000 nM and the IC50 (PI3K (p110β/p85α); [5]) was 1700 nM. The IC50 (PI3K (p110γ); [6]) was 4200 nM.

In the case of CC(C)Oc1c(C(C)c2nc(Cl)c3c(N)nccn23)cc(Cl)c(F)c1-c1ccc(C(F)(F)F)nc1 (stereo not shown) [Compound 40, 1-chloro-3-(1-(5-chloro-4-fluoro-2-isopropoxy-3-(6-(trifluoromethyl)pyridin-3-yl)phenyl)ethyl)imidazo[1,5-a]pyrazin-8-amine], the IC50 [1, 3] is reported as 5.5 nM, the IC50 [2, 4] is reported as greater than 50000 nM and the IC50 (PI3K (p110β/p85α); [5]) is reported as greater than 50000 nM. For the same molecule, the IC50 (PI3K (p110γ); [6]) was greater than 50000 nM.

CCOc1c(C(C)c2nc(Br)c3c(N)nccn23)cc(Cl)c(C)c1-c1ccc(Cl)nc1 (stereo not shown) [Compound 26, 1-bromo-3-(1-(5-chloro-3-(6-chloropyridin-3-yl)-2-ethoxy-4-methylphenyl)ethyl) imidazo[1,5-a]pyrazin-8-amine] was tested, and the IC50 [1, 3] was 1.4 nM, the IC50 [2, 4] was 1500 nM and the IC50 (PI3K (p110β/p85α); [5]) was 330 nM. For the same molecule, the IC50 (PI3K (p110γ); [6]) was 500 nM.

Cc1nc([C@@H](C)c2cc(Cl)c(F)c(-c3ccc(C(=O)N4CC[C@@H](O)C4)nc3)c2OC(C)C)n2ccnc(N)c12 [Compound 64, (5-(3-((S)-1-(8-amino-1-methylimidazo[1,5-a]pyrazin-3-yl)ethyl)-5-chloro-6-fluoro-2-isopropoxyphenyl)pyridin-2-yl)((R)-3-hydroxypyrrolidin-1-yl)methanone] was tested, and the IC50 [1, 3] was 0.37 nM, the IC50 [2, 4] was 1400 nM and the IC50 (PI3K (p110β/p85α); [5]) was 1600 nM. It also gave an IC50 (PI3K (p110γ); [6]) of 2100 nM.

CC(C)Oc1c([C@H](C)c2nc(Cl)c3c(N)nccn23)cc(Cl)c(F)c1-c1ccc(C(N)=O)nc1 [Compound 17B] gave an IC50 [1, 3] of 0.28 nM, an IC50 [2, 4] of 970 nM and an IC50 (PI3K (p110β/p85α); [5]) of 670 nM. For the same molecule, the IC50 (PI3K (p110γ); [6]) was 520 nM.

COc1c(C(C)c2nc(Br)c3c(N)nccn23)cc(Cl)c(C)c1-c1ccc(C)nc1 (stereo not shown) [Compound 19, 1-bromo-3-(1-(5-chloro-2-methoxy-4-methyl-3-(6-methylpyridin-3-yl)phenyl)ethyl) imidazo[1,5-a]pyrazin-8-amine] gave an IC50 ([1]; PI3Kδ Enzyme activity IC50) of 1.3 nM, an IC50 ([2]; PI3Kα Enzyme activity IC50) of 580 nM and an IC50 (PI3K (p110β/p85α); PI3Kβ Enzyme activity IC50) of 180 nM. It also gave an IC50 (PI3K (p110γ); PI3Kγ Enzyme activity IC50) of 210 nM.

Work on CCOc1c(C(C)c2nc(Cl)c3c(N)nccn23)cc(Cl)c(C)c1-c1ccc(C)nc1 (stereo not shown) [Compound 8, 1-chloro-3-(1-(5-chloro-2-ethoxy-4-methyl-3-(6-methylpyridin-3-yl)phenyl)ethyl) imidazo[1,5-a]pyrazin-8-amine] yielded an IC50 [1, 3] of 1.1 nM, an IC50 [2, 4] of 1400 nM and an IC50 (PI3K (p110β/p85α); [5]) of 350 nM. For the same molecule, the IC50 (PI3K (p110γ); [6]) was 260 nM.

Molecule CCOc1c(C(C)c2nc(-c3cccc(O)c3)c3c(N)nccn23)cc(Cl)c(C)c1-c1ccc(C(F)(F)F)nc1 (stereo not shown) [Compound 10, 3-(8-amino-3-(1-(5-chloro-2-ethoxy-4-methyl-3-(6-(trifluoromethyl)pyridin-3-yl)phenyl)ethyl)imidazo[1,5-a]pyrazin-1-yl)phenol] has an IC50 [1, 3] of 9.1 nM, an IC50 [2, 4] of 3200 nM and an IC50 (PI3K (p110β/p85α); [5]) of 2700 nM. For the same molecule, the IC50 (PI3K (p110γ); [6]) was 1500 nM.

Work on CCOc1c(C(C)c2nc(Br)c3c(N)nccn23)cc(Cl)c(C)c1-c1ccc(OC)nc1 (stereo not drawn) [Compound 28, 1-bromo-3-(l-(5-chloro-2-ethoxy-3-(6-methoxypyridin-3-yl)-4-methylphenyl)ethyl)imidazo[1,5-a]pyrazin-8-amine] yielded an IC50 ([1]; PI3Kδ Enzyme activity IC50) of 3.2 nM, an IC50 ([2]; PI3Kα Enzyme activity IC50) of 2300 nM and an IC50 (PI3K (p110β/p85α); PI3Kβ Enzyme activity IC50) of 930 nM. For the same molecule, the IC50 (PI3K (p110γ); PI3Kγ Enzyme activity IC50) was 740 nM.

Molecule CCOc1c(C(C)c2nc(Cl)c3c(N)nccn23)cc(Cl)c(C)c1C1CNC(=O)C1 (stereo not shown) [Compound 46, 4-(3-(1-(8-amino-1-chloroimidazo[1,5-a]pyrazin-3-yl)ethyl)-5-chloro-2-ethoxy-6-methylphenyl)pyrrolidin-2-one] has an IC50 [1, 3] of 0.7 nM, an IC50 [2, 4] of 5600 nM and an IC50 (PI3K (p110β/p85α); [5]) of 470 nM. For the same molecule, the IC50 (PI3K (p110γ); [6]) was 920 nM.

For CCOc1c(C(C)c2nc(C)c3c(N)nccn23)cc(Cl)c(C)c1-c1ccc(C(F)(F)F)nc1 (stereo not shown) [Compound 32, 3-(1-(5-chloro-2-ethoxy-4-methyl-3-(6-(trifluoromethyl)pyridin-3-yl)phenyl)ethyl)-1-methylimidazo[1,5-a]pyrazin-8-amine], the IC50 [1, 3] was 8.5 nM, the IC50 [2, 4] was 7400 nM and the IC50 (PI3K (p110β/p85α); [5]) was 3500 nM. For the same molecule, the IC50 (PI3K (p110γ); [6]) was 2100 nM.

Work on CCOc1cc(C)c(Cl)cc1C(C)c1nc(Br)c2c(N)nccn12 (stereo not shown) [Compound 50, 1-bromo-3-(1-(5-chloro-2-ethoxy-4-methylphenyl)ethyl)imidazo[1,5-a]pyrazin-8-amine] yielded an IC50 [1, 3] of 17 nM, an IC50 [2, 4] of 36000 nM and an IC50 (PI3K (p110β/p85α); [5]) of 670 nM. For the same molecule, the IC50 (PI3K (p110γ); [6]) was 2600 nM.

For Cc1nc([C@@H](C)c2cc(Cl)c(F)c(-c3ccc(C(=O)NC(C)(C)C(=O)O)nc3)c2OC(C)C)n2ccnc(N)c12 [Compound 70, (S)-2-(5-(3-(1-(8-amino-1-methylimidazo[1,5-a]pyrazin-3-yl)ethyl)-5-chloro-6-fluoro-2-isopropoxyphenyl)picolinamido)-2-methylpropanoic Acid], the IC50 [1, 3] was 0.33 nM, the IC50 [2, 4] was 4400 nM and the IC50 (PI3K (p110β/p85α); [5]) was 540 nM. For the same molecule, the IC50 (PI3K (p110γ); [6]) was 840 nM.

For CC(C)Oc1c(C(C)c2nc(Cl)c3c(N)nccn23)cc(F)c(Cl)c1-c1ccc(C(F)(F)F)nc1 (stereo not shown) [Compound 35, 1-chloro-3-(1-(4-chloro-5-fluoro-2-isopropoxy-3-(6-(trifluoromethyl)pyridin-3-yl)phenyl)ethyl)imidazo[1,5-a]pyrazin-8-amine], the IC50 [1, 3] was 11 nM, the IC50 [2, 4] was 23000 nM and the IC50 (PI3K (p110β/p85α); [5]) was 79000 nM. For the same molecule, the IC50 (PI3K (p110γ); [6]) was 5900 nM.

CCOc1c([C@H](C)c2nc(Cl)c3c(N)nccn23)cc(Cl)c(C)c1-c1ccc(C(=O)N(C)C)nc1 [Compound 11, (S)-5-(3-(1-(8-amino-1-chloroimidazo[1,5-a]pyrazin-3-yl)ethyl)-5-chloro-2-ethoxy-6-methylphenyl)-N,N-dimethylpicolinamide] gave an IC50 [1, 3] of 0.54 nM, an IC50 [2, 4] of 540 nM and an IC50 (PI3K (p110β/p85α); [5]) of 360 nM. For the same molecule, the IC50 (PI3K (p110γ); [6]) was 190 nM.

With Cc1nc([C@@H](C)c2cc(Cl)c(F)c(-c3ccc(C(=O)N4CCC(F)(F)CC4)nc3)c2OC(C)C)n2ccnc(N)c12 [Compound 71] the IC50 [1, 3] was 0.96 nM, the IC50 [2, 4] was 4700 nM and the IC50 (PI3K (p110β/p85α); [5]) was 2700 nM. The IC50 (PI3K (p110γ); [6]) was 3200 nM.
